Laboratory results from ChEMBL document CHEMBL1130509 (Bioorg Med Chem Lett, 1997).

Legend:
[1] = target: 5-hydroxytryptamine receptor 4 (Rattus norvegicus, UniProt Q62758); assay: Agonist activity against serotonin 5-HT4 receptor in rat tunica muscularis mucosae assay; assay type: functional
[2] = target: T1, Alpha-2A adrenergic receptor (Rattus norvegicus, UniProt P22909); assay: Compound was tested for inhibitory activity against adrenergic alpha-2 receptor
T1 sequence (P22909 whole entry): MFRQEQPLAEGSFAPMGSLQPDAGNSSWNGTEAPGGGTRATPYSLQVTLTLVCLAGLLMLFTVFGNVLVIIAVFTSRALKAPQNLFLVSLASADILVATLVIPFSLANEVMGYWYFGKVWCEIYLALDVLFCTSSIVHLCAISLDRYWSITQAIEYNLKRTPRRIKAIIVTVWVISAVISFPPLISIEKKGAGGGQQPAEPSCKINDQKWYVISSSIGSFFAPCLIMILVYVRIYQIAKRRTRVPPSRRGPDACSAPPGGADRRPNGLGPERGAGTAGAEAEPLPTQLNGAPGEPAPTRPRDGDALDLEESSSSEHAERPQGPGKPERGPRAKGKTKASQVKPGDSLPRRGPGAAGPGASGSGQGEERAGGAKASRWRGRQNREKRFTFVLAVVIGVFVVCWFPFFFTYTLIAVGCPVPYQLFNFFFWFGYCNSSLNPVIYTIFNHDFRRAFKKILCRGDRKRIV

Adrenergic receptor beta = Adrenergic receptor beta (Homo sapiens, UniProt P08588+P07550+P13945); assay: Compound was tested for inhibitory activity against Beta adrenergic receptor; assay type: protein assay
D(2) dopamine receptor [3] = target: T2, D(2) dopamine receptor (Homo sapiens, UniProt P14416); assay: Compound was tested for inhibitory activity against Dopamine D2 receptor
T2 sequence (P14416 whole entry): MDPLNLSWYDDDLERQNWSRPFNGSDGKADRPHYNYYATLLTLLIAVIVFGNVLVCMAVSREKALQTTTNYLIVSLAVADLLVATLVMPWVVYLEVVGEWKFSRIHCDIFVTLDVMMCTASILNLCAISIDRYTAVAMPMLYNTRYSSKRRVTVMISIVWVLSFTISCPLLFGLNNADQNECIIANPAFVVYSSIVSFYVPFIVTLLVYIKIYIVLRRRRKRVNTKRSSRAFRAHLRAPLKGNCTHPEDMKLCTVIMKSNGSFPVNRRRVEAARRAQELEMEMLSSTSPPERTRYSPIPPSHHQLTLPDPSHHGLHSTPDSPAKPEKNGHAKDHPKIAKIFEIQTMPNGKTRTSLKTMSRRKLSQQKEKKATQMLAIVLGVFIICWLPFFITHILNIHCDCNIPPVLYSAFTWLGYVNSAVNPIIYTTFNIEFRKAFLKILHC

[4] = target: T3, Alpha-1B adrenergic receptor (Homo sapiens, UniProt P35368); assay: Compound was tested for inhibitory activity against adrenergic alpha-1 receptor
T3 sequence (P35368 whole entry): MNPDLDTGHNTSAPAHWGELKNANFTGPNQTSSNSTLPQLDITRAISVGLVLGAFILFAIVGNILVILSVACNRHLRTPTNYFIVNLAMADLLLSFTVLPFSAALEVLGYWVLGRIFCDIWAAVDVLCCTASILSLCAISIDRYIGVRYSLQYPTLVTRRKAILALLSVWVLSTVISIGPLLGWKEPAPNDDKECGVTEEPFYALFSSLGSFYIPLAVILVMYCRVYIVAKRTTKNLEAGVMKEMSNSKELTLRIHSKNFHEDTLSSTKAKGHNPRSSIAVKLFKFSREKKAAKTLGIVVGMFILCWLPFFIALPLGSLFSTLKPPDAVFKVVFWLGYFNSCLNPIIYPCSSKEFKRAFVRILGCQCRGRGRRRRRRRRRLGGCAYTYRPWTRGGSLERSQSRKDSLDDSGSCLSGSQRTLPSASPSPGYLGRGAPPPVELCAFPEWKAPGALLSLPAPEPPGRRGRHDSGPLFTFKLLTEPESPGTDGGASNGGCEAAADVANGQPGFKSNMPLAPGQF

[5] = Compound was tested for inhibitory activity against 5-hydroxytryptamine 1 receptor
[6] = target: Muscarinic acetylcholine receptor M3 (Rattus norvegicus, UniProt P08483); assay: Compound was tested for inhibitory activity against Muscarinic acetylcholine receptor
Muscarinic acetylcholine receptor M3, sequence (P08483 whole entry): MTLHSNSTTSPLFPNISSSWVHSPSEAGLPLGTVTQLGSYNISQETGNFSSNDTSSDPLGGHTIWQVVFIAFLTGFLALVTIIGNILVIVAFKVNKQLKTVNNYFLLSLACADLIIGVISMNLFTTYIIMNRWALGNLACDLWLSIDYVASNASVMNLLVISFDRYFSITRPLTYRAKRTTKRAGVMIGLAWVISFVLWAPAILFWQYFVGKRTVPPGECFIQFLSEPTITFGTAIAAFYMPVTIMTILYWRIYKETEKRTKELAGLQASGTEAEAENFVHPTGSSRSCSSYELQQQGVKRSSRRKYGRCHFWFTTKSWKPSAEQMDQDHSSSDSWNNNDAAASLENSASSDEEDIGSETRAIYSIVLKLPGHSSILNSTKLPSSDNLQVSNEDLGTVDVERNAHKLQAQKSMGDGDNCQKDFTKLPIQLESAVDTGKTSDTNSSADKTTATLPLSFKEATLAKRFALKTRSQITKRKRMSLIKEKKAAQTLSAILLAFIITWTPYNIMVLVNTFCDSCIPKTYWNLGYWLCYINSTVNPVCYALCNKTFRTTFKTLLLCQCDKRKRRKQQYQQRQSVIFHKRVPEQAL

D(1A) dopamine receptor = D(1A) dopamine receptor (Homo sapiens, UniProt P21728); assay: Compound was tested for inhibitory activity against Dopamine D1 receptor
D(1A) dopamine receptor, sequence (P21728 whole entry): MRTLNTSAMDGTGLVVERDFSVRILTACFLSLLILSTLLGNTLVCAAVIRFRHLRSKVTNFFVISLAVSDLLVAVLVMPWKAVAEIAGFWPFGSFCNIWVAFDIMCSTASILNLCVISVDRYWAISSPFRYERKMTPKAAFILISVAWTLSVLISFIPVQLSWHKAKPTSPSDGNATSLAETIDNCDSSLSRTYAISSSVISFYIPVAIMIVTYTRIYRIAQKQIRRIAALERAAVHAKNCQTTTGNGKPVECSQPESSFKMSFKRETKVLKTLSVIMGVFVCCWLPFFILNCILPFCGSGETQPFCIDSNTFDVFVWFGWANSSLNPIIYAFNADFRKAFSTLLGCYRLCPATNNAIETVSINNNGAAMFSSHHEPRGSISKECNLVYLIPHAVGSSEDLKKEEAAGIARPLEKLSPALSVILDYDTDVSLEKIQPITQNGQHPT

Substance-P receptor = Substance-P receptor (Homo sapiens, UniProt P25103); assay: Compound was tested for inhibitory activity against Tachykinin receptor 1
Substance-P receptor, sequence (P25103 whole entry): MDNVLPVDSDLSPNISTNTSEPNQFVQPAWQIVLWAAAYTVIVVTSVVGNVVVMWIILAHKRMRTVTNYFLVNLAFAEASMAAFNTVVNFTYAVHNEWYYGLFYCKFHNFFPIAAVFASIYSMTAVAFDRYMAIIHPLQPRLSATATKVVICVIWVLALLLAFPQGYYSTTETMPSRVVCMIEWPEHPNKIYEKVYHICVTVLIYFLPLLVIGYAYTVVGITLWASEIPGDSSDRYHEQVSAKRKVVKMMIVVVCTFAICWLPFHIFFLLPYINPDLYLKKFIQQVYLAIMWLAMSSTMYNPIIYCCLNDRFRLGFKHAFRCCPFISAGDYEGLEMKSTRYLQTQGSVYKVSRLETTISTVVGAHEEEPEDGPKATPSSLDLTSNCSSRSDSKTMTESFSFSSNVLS

[7] = target: T4, 5-hydroxytryptamine receptor 3A (Homo sapiens, UniProt P46098); assay: (§1) Compound was tested for its binding affinity for the 5-hydroxytryptamine 3 receptor
T4 sequence (P46098 whole entry): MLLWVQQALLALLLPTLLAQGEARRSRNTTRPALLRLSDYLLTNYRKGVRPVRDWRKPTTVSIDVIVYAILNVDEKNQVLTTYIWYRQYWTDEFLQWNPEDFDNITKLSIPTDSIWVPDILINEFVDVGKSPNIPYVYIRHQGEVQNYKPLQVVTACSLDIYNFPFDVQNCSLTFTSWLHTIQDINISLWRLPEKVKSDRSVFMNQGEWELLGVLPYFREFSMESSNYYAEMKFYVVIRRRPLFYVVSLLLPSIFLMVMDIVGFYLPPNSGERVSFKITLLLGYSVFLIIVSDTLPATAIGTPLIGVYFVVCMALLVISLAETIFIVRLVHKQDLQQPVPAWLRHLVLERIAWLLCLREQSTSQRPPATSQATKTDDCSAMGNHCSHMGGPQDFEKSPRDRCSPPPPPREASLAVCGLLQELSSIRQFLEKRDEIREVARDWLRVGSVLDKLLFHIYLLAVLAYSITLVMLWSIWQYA

[8] = target: Serotonin 2 (5-HT2) receptor (Homo sapiens, UniProt P41595+P28223+P28335); assay: Compound was tested for inhibitory activity against 5-hydroxytryptamine 2 receptor; assay type: protein assay
[9] = target: T5, Serotonin 3 (5-HT3) receptor (Rattus norvegicus, UniProt P35563+Q9JJ16); assay: as §1; assay type: protein-complex assay
T5 sequence (P35563 whole entry): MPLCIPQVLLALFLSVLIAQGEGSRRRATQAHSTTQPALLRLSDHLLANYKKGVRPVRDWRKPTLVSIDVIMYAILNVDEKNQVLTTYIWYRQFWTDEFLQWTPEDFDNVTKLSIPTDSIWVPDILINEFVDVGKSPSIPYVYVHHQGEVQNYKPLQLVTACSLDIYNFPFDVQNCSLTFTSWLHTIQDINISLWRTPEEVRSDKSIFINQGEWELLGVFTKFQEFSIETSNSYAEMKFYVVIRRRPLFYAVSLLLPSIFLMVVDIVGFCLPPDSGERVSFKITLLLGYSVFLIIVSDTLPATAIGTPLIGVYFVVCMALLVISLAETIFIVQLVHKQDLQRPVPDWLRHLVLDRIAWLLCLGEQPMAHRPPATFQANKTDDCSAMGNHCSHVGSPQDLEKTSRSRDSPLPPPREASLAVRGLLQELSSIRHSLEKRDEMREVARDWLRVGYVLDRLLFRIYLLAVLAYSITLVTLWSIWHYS
T5 sequence (Q9JJ16 whole entry): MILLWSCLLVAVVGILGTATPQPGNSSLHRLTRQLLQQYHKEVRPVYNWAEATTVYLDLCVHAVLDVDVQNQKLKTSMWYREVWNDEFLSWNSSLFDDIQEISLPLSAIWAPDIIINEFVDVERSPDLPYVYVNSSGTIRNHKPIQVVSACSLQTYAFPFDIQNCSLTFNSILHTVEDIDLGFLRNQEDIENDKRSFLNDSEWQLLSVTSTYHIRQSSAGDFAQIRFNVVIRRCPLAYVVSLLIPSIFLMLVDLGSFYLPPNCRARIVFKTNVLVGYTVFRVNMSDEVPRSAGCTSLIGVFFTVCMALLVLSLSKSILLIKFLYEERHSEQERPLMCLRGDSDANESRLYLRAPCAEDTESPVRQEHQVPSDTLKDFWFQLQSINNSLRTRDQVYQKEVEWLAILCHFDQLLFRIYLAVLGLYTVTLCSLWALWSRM

Mus musculus = assay: Compound was tested for inhibition of serotonin 5-HT3 receptor mediated bradycardia in Bezold-Jarisch reflex model in mice at 1 mg/kg after intraperitoneal administration; assay type: functional; details: ip
D(2) dopamine receptor [10] = target: T2, D(2) dopamine receptor; assay: Compound was selective with respect to binding at the Dopamine receptor D2

5-hydroxytryptamine receptor 4, sequence (Q62758 whole entry): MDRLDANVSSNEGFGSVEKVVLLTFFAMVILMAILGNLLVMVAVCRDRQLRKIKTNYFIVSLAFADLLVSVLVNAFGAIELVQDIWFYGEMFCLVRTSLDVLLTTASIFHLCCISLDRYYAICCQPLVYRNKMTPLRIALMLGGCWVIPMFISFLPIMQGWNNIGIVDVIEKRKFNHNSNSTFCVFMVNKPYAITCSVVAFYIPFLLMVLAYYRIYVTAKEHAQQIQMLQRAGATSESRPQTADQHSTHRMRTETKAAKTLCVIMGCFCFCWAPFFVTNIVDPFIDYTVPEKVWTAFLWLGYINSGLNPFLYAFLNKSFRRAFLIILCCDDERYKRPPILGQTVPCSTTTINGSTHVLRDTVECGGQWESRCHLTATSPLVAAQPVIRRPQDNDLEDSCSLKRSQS

In the case of COc1cc(NC(C)=O)c(Cl)cc1C(=O)NC1C2CC3CC1CN3C2 (configuration not stated), the EC50 [1] is reported as over 10 µM.

Work on COc1cc(N)c(Cl)cc1C(=O)NC1C2CC3CN(C2)CC31.Cl (configuration not stated) yielded an IC50 [2] of over 10 µM, an IC50 (Adrenergic receptor beta) of over 10 µM and an IC50 (D(2) dopamine receptor [3]) of over 10 µM. The IC50 [4] was over 10 µM, the IC50 [5] was over 10 µM and the IC50 [6] was over 10 µM. It also gave an IC50 (D(1A) dopamine receptor) of over 10 µM, an IC50 (Substance-P receptor) of over 10 µM and an EC50 [1] of 0.051 µM. For the same compound, the Ki [7] was 0.0012 µM and the IC50 [8] was over 10 µM.

In the case of COc1cc(N)c(Cl)cc1C(=O)NCCC12CC3CN(CC3C1)C2, the EC50 [1] is reported as 1.66 µM.

Compound COc1cc(N)c(Cl)cc1C(=O)NCC12CC3CN(CC3C1)C2 has a Ki [9] of 0.005 µM, an inhibition in vivo at 1 mg/kg (Mus musculus) of 70% and an IC50 (D(2) dopamine receptor [10]) of over 10 µM.

For COc1cc(NC(C)=O)c(Cl)cc1C(=O)NCC1C2CC3CC1CN3C2 (configuration not stated), the EC50 [1] was over 10 µM.
